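Following 48 hours of exposure in 96-well plates, responses at five concentrations were used to interpolate endpoints linearly. Abbreviation: GI50, concentration required for 50% inhibition of growth. TGI denotes the concentration required for complete inhibition of growth.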
How the values were obtained:
Assay in all cases: DTP human tumour cell line panel, 48 h; in the data active means GI50 below about 0.43 µM; inactive means the rest
786-0 renal = system: 786-0 renal
A498 renal = system: A498 renal
A549 NSCLC = system: A549 NSCLC
ACHN renal = system: ACHN renal
BT-549 breast = system: BT-549 breast
CAKI-1 renal = system: CAKI-1 renal
CCRF-CEM leukemia = system: CCRF-CEM leukemia
COLO 205 colon = system: COLO 205 colon
DU-145 prostate = system: DU-145 prostate
EKVX NSCLC = system: EKVX NSCLC
HCC-2998 colon = system: HCC-2998 colon
HCT-116 colon = system: HCT-116 colon
HCT-15 colon = system: HCT-15 colon
HL-60(TB) leukemia = system: HL-60(TB) leukemia
HOP-62 NSCLC = system: HOP-62 NSCLC
HOP-92 NSCLC = system: HOP-92 NSCLC
HS 578T breast = system: HS 578T breast
HT29 colon = system: HT29 colon
IGROV1 ovarian = system: IGROV1 ovarian
K-562 leukemia = system: K-562 leukemia
KM12 colon = system: KM12 colon
LOX IMVI melanoma = system: LOX IMVI melanoma
M14 melanoma = system: M14 melanoma
MALME-3M melanoma = system: MALME-3M melanoma
MCF7 breast = system: MCF7 breast
MDA-MB-231 breast = system: MDA-MB-231 breast
MDA-MB-435 = system: MDA-MB-435
MOLT-4 leukemia = system: MOLT-4 leukemia
NCI-H226 lung = system: NCI-H226 lung
NCI-H23 lung = system: NCI-H23 lung
NCI-H460 lung = system: NCI-H460 lung
NCI-H522 lung = system: NCI-H522 lung
NCI/ADR-RES ovarian = system: NCI/ADR-RES ovarian
OVCAR-3 ovarian = system: OVCAR-3 ovarian
OVCAR-4 ovarian = system: OVCAR-4 ovarian
OVCAR-5 ovarian = system: OVCAR-5 ovarian
OVCAR-8 ovarian = system: OVCAR-8 ovarian
PC-3 prostate = system: PC-3 prostate
SF-268 CNS = system: SF-268 CNS
SF-295 CNS = system: SF-295 CNS
SF-539 CNS = system: SF-539 CNS
SK-MEL-2 melanoma = system: SK-MEL-2 melanoma
SK-MEL-28 melanoma = system: SK-MEL-28 melanoma
SK-MEL-5 melanoma = system: SK-MEL-5 melanoma
SK-OV-3 ovarian = system: SK-OV-3 ovarian
SN12C renal = system: SN12C renal
SNB-19 CNS = system: SNB-19 CNS
SNB-75 CNS = system: SNB-75 CNS
SR leukemia = system: SR leukemia
SW-620 colon = system: SW-620 colon
T-47D breast = system: T-47D breast
TK-10 renal = system: TK-10 renal
UACC-257 melanoma = system: UACC-257 melanoma
UACC-62 melanoma = system: UACC-62 melanoma
UO-31 renal = system: UO-31 renal
RPMI-8226 leukemia = system: RPMI-8226 leukemia
RXF 393 renal = system: RXF 393 renal
U251 CNS = system: U251 CNS

CCN(CC)c1ccc(/C=C2\SC(=O)C(Nc3nnc(-c4cccnc4SCc4ccccc4)o3)C2=O)cc1 (stereo not given)
56.8 µM: TGI (IGROV1 ovarian)
5.81 µM: TGI (MDA-MB-435)
19.9 µM: TGI (SK-OV-3 ovarian)
8.77 µM: TGI (HS 578T breast)
36.7 µM: TGI (SK-MEL-28 melanoma)
9.67 µM: TGI (NCI-H522 lung)
53.2 µM: TGI (SK-MEL-2 melanoma)
24.9 µM: TGI (HOP-62 NSCLC)
85.6 µM: TGI (SF-295 CNS)
inactive: GI50 (786-0 renal) 9.51 µM | GI50 (A498 renal) 1.76 µM | GI50 (A549 NSCLC) 3.98 µM | GI50 (ACHN renal) 6.78 µM | GI50 (BT-549 breast) 12 µM | GI50 (CAKI-1 renal) 4.43 µM | GI50 (CCRF-CEM leukemia) 3.37 µM | GI50 (COLO 205 colon) 2.19 µM | GI50 (DU-145 prostate) 2.76 µM | GI50 (EKVX NSCLC) 6.72 µM | GI50 (HCC-2998 colon) 2.99 µM | GI50 (HCT-116 colon) 3.53 µM | GI50 (HCT-15 colon) 3.83 µM | GI50 (HL-60(TB) leukemia) 3.88 µM | GI50 (HOP-62 NSCLC) 4.32 µM | GI50 (HOP-92 NSCLC) 2.58 µM | GI50 (HS 578T breast) 2.61 µM | GI50 (HT29 colon) 3.63 µM | GI50 (IGROV1 ovarian) 10.9 µM | GI50 (K-562 leukemia) 3.24 µM | GI50 (KM12 colon) 3.64 µM | GI50 (LOX IMVI melanoma) 3.76 µM | GI50 (M14 melanoma) 3.24 µM | GI50 (MALME-3M melanoma) 4.12 µM | GI50 (MCF7 breast) 3.01 µM | GI50 (MDA-MB-231 breast) 2.34 µM | GI50 (MDA-MB-435) 2.18 µM | GI50 (MOLT-4 leukemia) 3.53 µM | GI50 (NCI-H226 lung) 9.41 µM | GI50 (NCI-H23 lung) 2.58 µM | GI50 (NCI-H460 lung) 3.21 µM | GI50 (NCI-H522 lung) 3.15 µM | GI50 (NCI/ADR-RES ovarian) 3.7 µM | GI50 (OVCAR-3 ovarian) 2.77 µM | GI50 (OVCAR-4 ovarian) 5.19 µM | GI50 (OVCAR-5 ovarian) 5.1 µM | GI50 (OVCAR-8 ovarian) 4 µM | GI50 (PC-3 prostate) 3.34 µM | GI50 (SF-268 CNS) 6.8 µM | GI50 (SF-295 CNS) 3.2 µM | GI50 (SF-539 CNS) 3.21 µM | GI50 (SK-MEL-2 melanoma) 10.1 µM | GI50 (SK-MEL-28 melanoma) 5.29 µM | GI50 (SK-MEL-5 melanoma) 3.85 µM | GI50 (SK-OV-3 ovarian) 3.34 µM | GI50 (SN12C renal) 4.11 µM | GI50 (SNB-19 CNS) 6.59 µM | GI50 (SNB-75 CNS) 2.56 µM | GI50 (SR leukemia) 3.29 µM | GI50 (SW-620 colon) 3.94 µM | GI50 (T-47D breast) 12.8 µM | GI50 (TK-10 renal) 22.3 µM | GI50 (UACC-257 melanoma) 16.6 µM | GI50 (UACC-62 melanoma) 4.2 µM | GI50 (UO-31 renal) 5.42 µM
27.4 µM: TGI (UACC-62 melanoma)
8.62 µM: TGI (NCI-H23 lung)
14.4 µM: TGI (SK-MEL-5 melanoma)
6.29 µM: TGI (OVCAR-3 ovarian)
89.7 µM: TGI (T-47D breast)
13.5 µM: TGI (M14 melanoma)
57.6 µM: TGI (NCI-H226 lung)
35 µM: TGI (HOP-92 NSCLC)
4.65 µM: TGI (COLO 205 colon)
> 100 µM: TGI (786-0 renal) | TGI (A549 NSCLC) | TGI (ACHN renal) | TGI (CAKI-1 renal) | TGI (CCRF-CEM leukemia) | TGI (EKVX NSCLC) | TGI (HCT-116 colon) | TGI (HCT-15 colon) | TGI (HL-60(TB) leukemia) | TGI (HT29 colon) | TGI (K-562 leukemia) | TGI (LOX IMVI melanoma) | TGI (MALME-3M melanoma) | TGI (MCF7 breast) | TGI (MOLT-4 leukemia) | TGI (NCI-H460 lung) | TGI (NCI/ADR-RES ovarian) | TGI (OVCAR-4 ovarian) | TGI (OVCAR-5 ovarian) | TGI (OVCAR-8 ovarian) | TGI (PC-3 prostate) | TGI (SF-268 CNS) | TGI (SN12C renal) | TGI (SNB-19 CNS) | TGI (SR leukemia) | TGI (SW-620 colon) | TGI (TK-10 renal) | TGI (UACC-257 melanoma) | TGI (UO-31 renal)
6.92 µM: TGI (DU-145 prostate)
15.5 µM: TGI (SF-539 CNS)
10.4 µM: TGI (HCC-2998 colon) | TGI (MDA-MB-231 breast)
59.3 µM: TGI (BT-549 breast)
28.4 µM: TGI (KM12 colon)
42.2 µM: TGI (SNB-75 CNS)
8.2 µM: TGI (A498 renal)

COc1ccc(S(=O)(=O)Nc2cc(/C=C\c3cc(OC)c(OC)c(OC)c3)cc(OC)c2OC)cc1
active: GI50 (786-0 renal) 0.0579 µM | GI50 (A498 renal) 0.0217 µM | GI50 (A549 NSCLC) 0.0474 µM | GI50 (ACHN renal) 0.057 µM | GI50 (BT-549 breast) 0.0425 µM | GI50 (CAKI-1 renal) 0.0531 µM | GI50 (CCRF-CEM leukemia) 0.0329 µM | GI50 (COLO 205 colon) 0.0214 µM | GI50 (DU-145 prostate) 0.0416 µM | GI50 (HCC-2998 colon) 0.0391 µM | GI50 (HCT-116 colon) 0.035 µM | GI50 (HCT-15 colon) 0.0358 µM | GI50 (HL-60(TB) leukemia) 0.0234 µM | GI50 (HOP-62 NSCLC) 0.0408 µM | GI50 (HS 578T breast) 0.0452 µM | GI50 (HT29 colon) 0.0331 µM | GI50 (IGROV1 ovarian) 0.0577 µM | GI50 (K-562 leukemia) 0.0272 µM | GI50 (KM12 colon) 0.0397 µM | GI50 (LOX IMVI melanoma) 0.05 µM | GI50 (M14 melanoma) 0.0301 µM | GI50 (MCF7 breast) 0.036 µM | GI50 (MDA-MB-231 breast) 0.0479 µM | GI50 (MDA-MB-435) 0.0211 µM | GI50 (MOLT-4 leukemia) 0.0495 µM | GI50 (NCI-H23 lung) 0.0593 µM | GI50 (NCI-H460 lung) 0.0367 µM | GI50 (NCI-H522 lung) 0.0197 µM | GI50 (NCI/ADR-RES ovarian) 0.0353 µM | GI50 (OVCAR-3 ovarian) 0.0345 µM | GI50 (OVCAR-4 ovarian) 0.0842 µM | GI50 (OVCAR-5 ovarian) 0.0499 µM | GI50 (OVCAR-8 ovarian) 0.0459 µM | GI50 (PC-3 prostate) 0.038 µM | GI50 (RPMI-8226 leukemia) 0.0459 µM | GI50 (RXF 393 renal) 0.0401 µM | GI50 (SF-268 CNS) 0.0575 µM | GI50 (SF-295 CNS) 0.0311 µM | GI50 (SK-MEL-2 melanoma) 0.0374 µM | GI50 (SK-MEL-28 melanoma) 0.0765 µM | GI50 (SK-MEL-5 melanoma) 0.0359 µM | GI50 (SN12C renal) 0.0698 µM | GI50 (SNB-19 CNS) 0.0601 µM | GI50 (SNB-75 CNS) 0.0265 µM | GI50 (SR leukemia) 0.0352 µM | GI50 (SW-620 colon) 0.0439 µM | GI50 (TK-10 renal) 0.065 µM | GI50 (U251 CNS) 0.0357 µM | GI50 (UACC-62 melanoma) 0.0461 µM | GI50 (UO-31 renal) 0.0635 µM
0.052 µM: TGI (NCI-H522 lung)
69.4 µM: TGI (UACC-62 melanoma)
23.2 µM: TGI (ACHN renal)
> 100 µM: TGI (A549 NSCLC) | TGI (CCRF-CEM leukemia) | TGI (DU-145 prostate) | TGI (HCC-2998 colon) | TGI (HCT-116 colon) | TGI (HCT-15 colon) | TGI (HOP-62 NSCLC) | TGI (HS 578T breast) | TGI (IGROV1 ovarian) | TGI (KM12 colon) | TGI (LOX IMVI melanoma) | TGI (M14 melanoma) | TGI (MCF7 breast) | TGI (MDA-MB-231 breast) | TGI (MOLT-4 leukemia) | TGI (NCI-H226 lung) | TGI (NCI-H23 lung) | TGI (OVCAR-4 ovarian) | TGI (OVCAR-5 ovarian) | TGI (OVCAR-8 ovarian) | TGI (PC-3 prostate) | TGI (SF-268 CNS) | TGI (SF-295 CNS) | TGI (SK-MEL-28 melanoma) | TGI (SN12C renal) | TGI (SNB-19 CNS) | TGI (SNB-75 CNS) | TGI (SW-620 colon) | TGI (T-47D breast) | TGI (U251 CNS)
13.2 µM: TGI (RPMI-8226 leukemia)
48.2 µM: TGI (K-562 leukemia)
inactive: GI50 (HOP-92 NSCLC) 1.76 µM | GI50 (MALME-3M melanoma) 12.6 µM | GI50 (NCI-H226 lung) 27.3 µM | GI50 (T-47D breast) 5.21 µM | GI50 (UACC-257 melanoma) 4.1 µM
30.9 µM: TGI (CAKI-1 renal)
85.3 µM: TGI (UO-31 renal)
22.6 µM: TGI (786-0 renal)
82.3 µM: TGI (HOP-92 NSCLC)
79 µM: TGI (BT-549 breast)
63.3 µM: TGI (SK-MEL-2 melanoma)
72.4 µM: TGI (RXF 393 renal)
97.3 µM: TGI (MALME-3M melanoma)
98.9 µM: TGI (UACC-257 melanoma)
0.0482 µM: TGI (MDA-MB-435)
0.0924 µM: TGI (A498 renal)
0.0459 µM: TGI (COLO 205 colon)
81.5 µM: TGI (NCI/ADR-RES ovarian)
0.122 µM: TGI (HT29 colon)
0.0977 µM: TGI (OVCAR-3 ovarian)
0.0635 µM: TGI (HL-60(TB) leukemia)
78 µM: TGI (TK-10 renal)
2.37 µM: TGI (SR leukemia)
0.168 µM: TGI (SK-MEL-5 melanoma)
17 µM: TGI (NCI-H460 lung)
